We go through eleven compounds from patent publication US20030078190A1 (priority 2001, published 2003).

Several values for one entry are separate records, joined by “and”; a condition that tells them apart may be missing. Equal entries are not always repeated. Entries after “also recorded” stand apart in the source; their conditions may differ. Where two headings read alike, the source gives them in different places. Marks after values point to notes of the source that are not given here.

The test system of one series is hypertensive patients. Conditions: cited from earlier work; for BP reductions in comparative short-term trials between ACEI and ARBs: in vivo.
The test system of series [1] is subjects with both diabetic and non-diabetic renal disease. The experiment in a line: Preliminary unpublished observations: microalbuminuria under supramaximal ARB doses. In kind it is in vivo, human. From the text: Strategies to enhance blockade of the tissue RAAS may result in greater renoprotective effects, by further reducing intraglomerular hydrostatic pressure and glomerular hypertrophy, and providing additional improvements in glomerular permselectivity. […] Utilizing ARBs rather than ACEI was chosen owing to evidence that ARBs provide enhanced tissue RAAS blockade by prevention of the ACE escape phenomenon and thus more complete blockade of angiotensin II (AII) produced by both ACE and non-ACE pathways.

In series [2] the test system is patients with heavy proteinuria (>1.5 g/day). Kind of series: 24-hour urinary protein excretion with high-dose candesartan cilexetil (Example 1). In kind it is in vivo, human. On the procedure: The optimal doses of ACEIs and/or ARBs for maximal reduction in urinary protein excretion are not known. Moreover, beneficial effects from ARBs, such as tissue protection owing to a more complete blockade of the RAAS, may be independent of blood pressure-lowering by ARBs. This investigation was designed to evaluate whether increasing the dose of candesartan cilexetil, in subjects already on the FDA's maximum recommended daily doses of 32 mg, would induce a further reduction in 24-hour urinary protein excretion in patients with heavy proteinuria (urinary protein excretion >1.5 g/day; mean 4.4±2 g/day).
(§1) Ten older patients (67±10 years; 80% male) with heavy proteinuria (>1.5 g/day) were started on 16 or 32 mg of candesartan cilexetil daily. Several patients had renal biopsies performed. Eight patients had nephrotic syndrome, four of whom had diabetic nephropathy, two had focal sclerosis, one had membranous nephropathy, and one had postinfectious nephropathy. The two other patients had nephrosclerosis, one being extremely severe and associated with moderate interstitial disease. Most of the patients were already receiving multiple medications for optimal BP control which included the following: calcium channel blockers (CCBs, 80%), diuretics (70%), beta blockers (40%), alpha blockers (40%), and ACEI (40%). Additional concurrent medications included lipid-lowering agents, anti-ischemic drugs and hypoglycemic agents. No effort was made to standardize any class of medications other than ARBs, and no other controls, such as sodium restriction, were instituted as patients were treated using standard office practice procedures.
(§2) After 1-2 months of therapy, the dose of candesartan cilexetil was titrated upwards (at 16-32 mg dose increments) to 96 mg/d, while 24-hour urine samples were obtained to measure protein and creatinine. The candesartan doses were increased independently of the need for BP control. Subsequently, the effect of increased doses of candesartan on 24-hour urinary protein and creatinine excretion, BP, serum creatinine and potassium were serially measured.
(§3) Baseline data was utilized either prospectively or from past patient records collected close to the time of the clinical observation period. […] Thus, no statistical analysis was performed but general trends are noted.

The target of another series is T1, AT1 receptor (Homo sapiens, UniProt P30556).
T1 sequence (P30556 1-359): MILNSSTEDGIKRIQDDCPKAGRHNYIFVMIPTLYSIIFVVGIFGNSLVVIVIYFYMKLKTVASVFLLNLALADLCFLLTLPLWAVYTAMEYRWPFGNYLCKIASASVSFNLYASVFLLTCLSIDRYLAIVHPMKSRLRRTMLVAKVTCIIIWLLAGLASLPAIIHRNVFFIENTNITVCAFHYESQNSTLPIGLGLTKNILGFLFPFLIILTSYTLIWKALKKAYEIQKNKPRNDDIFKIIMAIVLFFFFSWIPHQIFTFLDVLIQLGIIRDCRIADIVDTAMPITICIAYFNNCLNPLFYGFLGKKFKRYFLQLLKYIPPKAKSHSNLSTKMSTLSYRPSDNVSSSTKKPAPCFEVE
Conditions: cited from earlier work.

For series [3], the system named is normotensive, proteinuric patients with IgA nephropathy. Conditions: increasing dose of lisinopril; cited from earlier work.
The subject of series [4] is patients with heavy proteinuria (>1.5 g/day). Kind of series: Blood pressure, serum creatinine, serum potassium and tolerability during candesartan dose titration (Example 1). In kind it is in vivo, human. On the procedure:
as §1, §2, §3

The test system of series [5] is patients with dilated aortic roots. Kind of series: Aortic root size by M-mode echocardiography under ARB therapy (Example 10). Type of series: in vivo, human. The text has this: Since regression of the aortic root dilatation on echocardiogram was so unusual, a study was undertaken to evaluate other individuals with aortic root dilatation to determine whether aortic root aneurysms or dilatation could be reduced using ARBs. […] In order to evaluate one group of homogeneous subjects, the following were inclusion criteria: (1) same modality of testing to determine the thickness of the aortic root; (2) same instrument; (3) same interpreter of echocardiogram; (4) subjects needed to be on medication (antihypertensive including ARB or ARB if normotensive); (5) at least 9 months of ARB therapy; and (6) the disease was strictly aneurysm, not CAD or CHF. Applying the above inclusion criteria, a group of 15 subjects was selected for analysis. The group included 13 men and 2 women, aged 66.4±13.3 years and weighing 188.8±29.6 pounds. Aortic root sizes were measured using M-mode echocardiography with a leading-edge-to-leading-edge measurement of the maximal distance between the anterior aortic root wall and the posterior aortic root wall, measured at a level immediately above the cusps at end diastole. The standard deviation for intra-observer error was ±2 mm. Interval changes in aortic root size were measured as initial value-most recent value, where a positive resulting value indicated a corresponding decrease in aortic root size over the interval.

Series [6] has as its system normotensive patients with IgA nephropathy. The settings on record: cited from earlier work.
In another series the target is tissue ACE (Homo sapiens, UniProt P12821). Conditions: compared with other ACEI (e.g., enalapril); due to lipophilic properties; cited from earlier work.
tissue ACE, sequence (P12821 30-1306): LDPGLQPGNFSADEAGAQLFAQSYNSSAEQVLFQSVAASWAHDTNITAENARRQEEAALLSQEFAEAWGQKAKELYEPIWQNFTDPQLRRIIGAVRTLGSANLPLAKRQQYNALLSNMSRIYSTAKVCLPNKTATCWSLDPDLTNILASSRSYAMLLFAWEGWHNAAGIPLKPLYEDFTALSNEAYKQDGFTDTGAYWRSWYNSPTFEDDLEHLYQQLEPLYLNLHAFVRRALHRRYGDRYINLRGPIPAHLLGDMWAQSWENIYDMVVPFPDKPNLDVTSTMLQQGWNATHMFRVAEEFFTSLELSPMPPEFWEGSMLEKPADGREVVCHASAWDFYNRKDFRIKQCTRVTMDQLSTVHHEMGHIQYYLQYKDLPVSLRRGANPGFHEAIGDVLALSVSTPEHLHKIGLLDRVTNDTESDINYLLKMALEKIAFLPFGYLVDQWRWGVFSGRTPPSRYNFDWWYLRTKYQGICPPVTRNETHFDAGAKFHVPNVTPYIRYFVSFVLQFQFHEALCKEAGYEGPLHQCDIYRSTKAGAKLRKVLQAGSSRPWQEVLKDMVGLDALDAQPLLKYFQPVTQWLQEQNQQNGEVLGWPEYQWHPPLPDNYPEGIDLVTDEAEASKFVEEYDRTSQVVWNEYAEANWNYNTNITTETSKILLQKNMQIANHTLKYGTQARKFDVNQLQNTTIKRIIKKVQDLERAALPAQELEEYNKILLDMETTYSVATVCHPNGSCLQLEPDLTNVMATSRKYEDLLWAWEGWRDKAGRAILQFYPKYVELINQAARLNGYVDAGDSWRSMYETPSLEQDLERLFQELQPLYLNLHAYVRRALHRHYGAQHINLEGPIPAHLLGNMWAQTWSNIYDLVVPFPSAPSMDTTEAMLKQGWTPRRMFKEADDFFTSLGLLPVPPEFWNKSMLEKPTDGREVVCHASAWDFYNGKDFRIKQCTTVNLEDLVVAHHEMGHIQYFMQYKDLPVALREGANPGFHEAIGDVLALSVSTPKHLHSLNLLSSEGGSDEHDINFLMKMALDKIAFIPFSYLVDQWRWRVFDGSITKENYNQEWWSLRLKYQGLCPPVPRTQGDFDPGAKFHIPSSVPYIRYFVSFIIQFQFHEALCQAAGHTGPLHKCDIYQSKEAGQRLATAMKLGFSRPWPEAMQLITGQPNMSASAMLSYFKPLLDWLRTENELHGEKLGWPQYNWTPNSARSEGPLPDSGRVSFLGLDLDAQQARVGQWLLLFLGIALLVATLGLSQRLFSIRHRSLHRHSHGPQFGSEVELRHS

Regarding `CCCCC1=NC2(CCCC2)C(=O)N1Cc1ccc(-c2ccccc2-c2nnn[nH]2)cc1` [irbesartan], the “BP reductions in comparative short-term trials between ACEI and ARBs” value in the series on hypertensive patients is recorded as “equivalent BP reductions”. Further, the Effect on microalbuminuria entry in series [1] is “additional reductions in microalbuminuria”. The “Protein Excretion (24-hour urinary protein excretion rate)” value is given as 0.5** g/day in [2] (irbesartan 150 mg, patient 7) and 0.4^§ g/day in [2] (irbesartan 300 mg, patient 6). In addition, the “Affinity for the AT1 receptor” value at AT1 receptor is recorded as “high affinity”. For the same compound, at AT1 receptor, the “Type of antagonism at the AT1 receptor” value is recorded as “insurmountable”.
Turning to `CCOC(=O)[C@H](CCc1ccccc1)N[C@@H](C)C(=O)N1CCC[C@H]1C(=O)O` [enalapril], in the series on hypertensive patients, the “BP reductions in comparative short-term trials between ACEI and ARBs” value is listed as “equivalent BP reductions”.
As to `CCCCc1ncc(/C=C(\Cc2cccs2)C(=O)O)n1Cc1ccc(C(=O)O)cc1` [eprosartan], on AT1 receptor, the “Affinity for the AT1 receptor” value was “lower affinity” and the “Type of antagonism at the AT1 receptor” value is listed as “surmountable”.
In the case of `NCCCC[C@H](N[C@@H](CCc1ccccc1)C(=O)O)C(=O)N1CCC[C@H]1C(=O)O` [lisinopril], the “Renal protective effect of increasing the dose” value in series [3] is listed as “additional renal protective effects, independent of any BP reductions”. For the same compound, the “BP reductions in comparative short-term trials between ACEI and ARBs” value in the series with hypertensive patients was “equivalent BP reductions”.
`CCOc1nc2cccc(C(=O)O)c2n1Cc1ccc(-c2ccccc2-c2nnn[nH]2)cc1` [candesartan]: the Tolerability entry in series [4] (96 mg/d) was “well tolerated, metabolically neutral”. In series [4] (at the higher doses of candesartan, attributable primarily to two of the ten patients), the “Increase in serum creatinine” value is 0.5 to 0.7 mg/dL. The Serum potassium in series [4] (throughout the dosing range of candesartan) lay within 4.3 to 4.5 mmol/L. For the same compound, the “Interval change in aortic root size (initial value minus most recent value)” value in [5] (one hypertensive subject, 128 mg/d) is given as 8 mm; in series [5] (one normotensive subject, 64 mg/d) it was 12 mm. In [5] (ten of 15 subjects, at least 9 months of ARB therapy), the “Decrease in aortic root size” value is on record as “more than 2 mm”.
Turning to `CCOC(=O)[C@H](CCc1ccccc1)N[C@@H](C)C(=O)N1[C@H](C(=O)O)C[C@@H]2CCC[C@@H]21` [ramipril], in the series with hypertensive patients (ACEI (ramipril) added to existing ARB (losartan) therapy), the “Additive antihypertensive response to add-on therapy” value was “small and not significant”.
Regarding `CCCCC(=O)N(Cc1ccc(-c2ccccc2-c2nnn[nH]2)cc1)[C@H](C(=O)O)C(C)C` [valsartan], the “BP reductions in comparative short-term trials between ACEI and ARBs” value in the series on hypertensive patients is “equivalent BP reductions”. In addition, the Effect on microalbuminuria result in series [1] was “additional reductions in microalbuminuria”.
With `CCCCc1nc(Cl)c(CO)n1Cc1ccc(-c2ccccc2-c2nn[nH]n2)cc1` [losartan], in the series on hypertensive patients (a few studies), the “BP reductions compared with ACEI” value was “smaller BP reductions”. Besides, the “BP reductions in comparative short-term trials between ACEI and ARBs” value in the series on hypertensive patients is listed as “equivalent BP reductions”. Further, the “Antihypertensive response to add-on therapy” value in the series on hypertensive patients (losartan 25-50 mg/d added to existing ramipril 2.5-5 mg/d, four-week study of 30 hypertensives) was “enhanced”. The Effect on microalbuminuria entry in series [1] is “additional reductions in microalbuminuria”. For the same compound, in [2] (losartan 50 mg, patient 6), the “Protein Excretion (24-hour urinary protein excretion rate)” value is given as 1.1^+ g/day. Moreover, the “Type of antagonism at the AT1 receptor” value at AT1 receptor is listed as “surmountable”; at AT1 receptor (listed as Losartan), “competitive antagonist”. Besides, the “Change of urinary protein excretion on monotherapy” value in series [6] (either drug as monotherapy, ARB = losartan) is reported as −27%. In series [6] (losartan 50 mg/day added to a moderate dose of an ACEI), the “Reduction of urinary protein excretion on combined ACEI and ARB therapy” value is listed as 69%.
Regarding `CCCc1nc2c(C)cc(-c3nc4ccccc4n3C)cc2n1Cc1ccc(-c2ccccc2C(=O)O)cc1` [telmisartan], the “BP reductions in comparative short-term trials between ACEI and ARBs” value in the series with hypertensive patients is reported as “equivalent BP reductions”.
As to `CCOc1nc2cccc(C(=O)OC(C)OC(=O)OC3CCCCC3)c2n1Cc1ccc(-c2ccccc2-c2nnn[nH]2)cc1` (stereo not drawn) [Candesartan cilexetil, candesartan cilexetil], the Safety and tolerability result in series [4] (doses between 32 and 96 mg) is given as “safe, well-tolerated”. Also, the “Protein Excretion, Mean” value in [2] (16 mg/day column, mean of N=4 (includes one losartan 50 mg and one irbesartan 150 mg value)) is reported as 2.8 g/day; in series [2] (32 mg/day column, mean of N=10 (includes one irbesartan 300 mg value)), 2.7 g/day; in series [2] (candesartan cilexetil 48 mg/day, mean of N=8), 1.9 g/day; in series [2] (candesartan cilexetil 64 mg/day, mean of N=8), 1.6 g/day; in [2] (candesartan cilexetil 80 mg/day, mean of N=8), 1.4 g/day; in [2] (candesartan cilexetil 96 mg/day, mean of N=5) it was 1.1 g/day. Besides, the “Protein Excretion (24-hour urinary protein excretion rate)” value is 3.2 g/day and 6.4 g/day in series [2] (candesartan cilexetil 16 mg/day, individual patients); 1.1 g/day and 2.0 g/day and 0.8 g/day and 4.9 g/day and 3.3 g/day and 2.7 g/day and 6.4 g/day and 4.6 g/day and 1.2 g/day in [2] (candesartan cilexetil 32 mg/day, individual patients); 0.9 g/day and 0.2 g/day (2×) and 2.6 g/day and 1.7 g/day and 2.9 g/day and 5.8 g/day and 1.2 g/day in series [2] (candesartan cilexetil 48 mg/day, individual patients); 1.7 g/day and 1.1 g/day and 0.4 g/day and 0.2 g/day and 1.3 g/day and 3.0 g/day and 4.7 g/day and 0.7 g/day in series [2] (candesartan cilexetil 64 mg/day, individual patients); 0.9 g/day and 0.5 g/day and 0.3 g/day and 1.6 g/day and 3.4 g/day and 1.4 g/day and 2.4 g/day and 0.6 g/day in [2] (candesartan cilexetil 80 mg/day, individual patients); 0.6 g/day and 0.2 g/day and 1.8 g/day and 2.3 g/day and 0.7 g/day in series [2] (candesartan cilexetil 96 mg/day, individual patients). Further, the “Effect on 24-hour urinary protein excretion beyond the recommended maximum dose” value in series [2] (dose extended beyond 32 mg/d) is “progressive reductions in 24-hour urinary protein excretion; also recorded: further reductions in urinary protein excretion in all subjects”.
Regarding `CCOC(=O)[C@H](CCc1ccccc1)N[C@@H](C)C(=O)N1Cc2ccccc2C[C@H]1C(=O)O` [quinapril], the “Ability to block tissue ACE activity” value at tissue ACE is on record as “better able to block tissue ACE activity”.
